Test results: US7642066B2, “High throughput pharmaceutical screening using drosophila” (Washington University, priority 2004, dated 2010)
Entries after “also recorded” stand apart in the source; their conditions may differ. One block for each compound: values may come before it.

Key:
wild-type Drosophila [1] = tested on: wild-type Drosophila; parameters: species or system Drosophila melanogaster; conditions: in vivo
Method: (§1) Into each well is pipetted 50-400 μl of either standard (control) or high glucose (experimental) Drosophila growth medium. A range of 50-400 μl is a balance between (1) providing sufficient food so as not to place undue feeding stress on the developing flies and (2) providing sufficient air space for the third larval instars to find sufficient wall space to pupate. Any one of several standard Drosophila growth medium recipes as known in the art of breeding Drosophila for research can be used. A known recipe for a standard growth medium includes, for example, water: 1 liter, cornmeal: 61 grams, yeast: 32 grams, agar: 9.3 grams, glucose: 129 grams (or molasses: 67 grams), methyl p-hydrobenzoate: 2.7 grams, and propionic acid: 0.05 liters. A high glucose growth medium is, for example, such a standard Drosophila growth medium supplemented with an additional 1 mole glucose. For example, to prepare a high glucose growth medium, an additional 180 grams of glucose is added to the recipe for standard growth medium as just described. Another embodiment, for example, of a standard growth medium is that prepared as follows: 1 gram agar, 8 grams brewers yeast, 2 grams yeast extract, 2 grams peptone, 3 grams sucrose, 6 grams glucose, 0.05 grams MgSO4×6H20, 0.05 grams CaCl2×2H20, 600 microliters propionic acid, 1 milliliter 10% p-Hydroxy-benzoic acid methyl ester in 95% ethanol, brought to 100 milliliters with water. A high glucose version of this medium is made, for example, by combining 75 milliliters of this medium with 25 milliliters of a 4 molar glucose solution in water.
Alternatively, the experimental growth medium is any growth medium containing an excess amount of a sugar or sugars selected from hexose sugars such as fructose, sorbitol, galactose and glucosamine, and from complex sugars such as sucrose, lactose or maltose.
The addition of 1 molar (1 M) glucose to the Drosophila growth media delayed pupariation, which reached significant levels at day 10 and high levels at day 11.
The developmental arrest can be screened as described in the Examples, infra. Glucose, for example, induces readily observable delays in pupariation as determined by the timing of significant eclosion, and peak eclosion. For example, control Drosophila embryos show significant eclosion beginning at day 8, while Drosophila embryos exposed to high glucose growth medium show significant eclosion beginning at day 11 (1 molar glucose). Similarly, peak eclosion is delayed, for example, from day 10 in controls, to day 12 (1 molar glucose). Thus, candidate compounds are screened by observing changes to the delay in significant eclosion and peak eclosion, as compared to the developmental delay induced by high glucose.
Accordingly, the ability of the hexose sugars fructose, sorbitol, galactose and glucosamine was tested by adding amounts of each sugar to the standard Drosophila growth medium. Fructose and sorbitol induced a 48-hour developmental delay at concentrations similar to those at which glucose induced developmental delay (data not shown).

wild-type Drosophila [2] = assay: Drosophila high throughput screen: effect of compound on glucose-mediated delay in pupariation; assay type: in vivo, Drosophila melanogaster; conditions: for effect on glucose-mediated developmental delay / delay in pupariation: high glucose (1 M glucose in growth media); for significant levels of pupariation / high levels of pupariation: 1 M glucose, FIG. 2
Method: Accordingly, methods and related articles of composition for high throughput screening assays involve the preparation of microtiter plates each with multiple wells, wherein each well initially contains one or more wild type Drosophila embryos and an amount of a high glucose Drosophila growth medium. The embryos develop while feeding on the high glucose growth medium. The precise age of the embryos at the time they are plated matters less than the fact that they are all about the same age, to permit accurate evaluation of the possible effects of the candidate compound on larval development.
To prepare the microtiter plates, for example, 96-well microtiter plates are used, such as those commonly commercially available and typically used for various laboratory assay techniques, including other high throughput drug assay techniques. A suitable example is a Falcon #3912 flexible 96-well plate. However, other multiple-well microtiter plates can be used.
as §1
A candidate compound, or cocktail of more than one compound, that has been selected for screening is dissolved in EtOH or prepared in DMSO/Aqueous solution. In an exemplary embodiment, EtOH is used. Although DMSO can be used, it can be toxic if it reaches final concentrations of more than 0.3% of the growth medium. The compound in solution is added and allowed to diffuse through the growth medium for an initial period of about 16-24 hours. Wild type Drosophila embryos are collected en masse and, after the initial period of diffusion of the candidate compound through the growth medium, sorted several to a well. In an exemplary embodiment, five to twenty embryos are sorted to each well. However, the number of embryos in each well can easily vary, provided that no more embryos than will flourish in the well are used. The number of embryos per well will also be influenced by the need to obtain a sufficient number of data points to make the test meaningful.
Once the Drosophila embryos are placed into each well on the growth medium, they hatch out and begin feeding after a second period of about 24 hours, bringing the final amount of diffusion time for the subject compound to about 40-48 hours. A period of about 24-48 hours is sufficient for full diffusion of most compounds. […] Finally, each well is sealed with a sealing film such as “Aeraseal Sealing Film” (available from Sigma-Aldrich, St. Louis, Mo.; Sigma #A-9224). […]

[3] = 0.375 mg/ml of food, 1 molar glucose, FIG. 3
[4] = 0.75 mg/ml of food, 1 molar glucose, FIG. 3

Compound: O=C(CO)[C@@H](O)[C@H](O)[C@H](O)CO [fructose]
developmental delay induced (wild-type Drosophila [1]; Drosophila melanogaster): 48 h

Compound: CC(C)[C@H]1CC[C@H](C(=O)N[C@H](Cc2ccccc2)C(=O)O)CC1 [nateglinide]
effect on rate of development (wild-type Drosophila [2]; [3]): partially restored the rate of development | pupariation high rates beginning (wild-type Drosophila [2]; [3]): 9 days | effect on rate of development (wild-type Drosophila [2]; [4]): intermediate result | pupariation high levels beginning (wild-type Drosophila [2]; [4]): 9 days | effect on glucose-mediated developmental delay / delay in pupariation (wild-type Drosophila [2]): demonstrated an ability to ameliorate glucose-mediated developmental delay

Compound: O=C[C@H](O)[C@@H](O)[C@@H](O)[C@H](O)CO [galactose]
concentration at which toxicity is demonstrated (wild-type Drosophila [1]; Drosophila melanogaster): 0.3 M

Compound: COc1ccc(Cl)cc1C(=O)NCCc1ccc(S(=O)(=O)NC(=O)NC2CCCCC2)cc1 [glyburide]
significant levels of pupariation (wild-type Drosophila [2]; 0.25 mg per ml of growth media, no-drug 1 M glucose control approximately day 12): 8 days | high levels of pupariation (wild-type Drosophila [2]; 0.25 mg per ml of growth media, no-drug 1 M glucose control day 13-14): ≤ 10 days | high levels of pupariation (wild-type Drosophila [2]; 1 mg per ml of growth media): 11 days | significant levels of pupariation (wild-type Drosophila [2]; 1 mg per ml of growth media): 11 days | effect on glucose-mediated developmental delay / delay in pupariation (wild-type Drosophila [2]): demonstrated an ability to ameliorate glucose-mediated developmental delay; also recorded: reduced glucose-mediated delay in pupariation

Continued, in another order:

concentration inducing a developmental delay (as low as) (wild-type Drosophila [1]; Drosophila melanogaster): 3000 µM | larval emergence (wild-type Drosophila [1]): most larvae failed to emerge
Compound: N[C@H]1C(O)O[C@H](CO)[C@@H](O)[C@@H]1O (stereo partly shown) [glucosamine]
developmental delay with progressively higher levels (wild-type Drosophila [1]): progressively longer developmental delays

developmental delay induced (wild-type Drosophila [1]; Drosophila melanogaster): 48 h
Compound: OC[C@@H](O)[C@@H](O)[C@H](O)[C@@H](O)CO [sorbitol]
